Reference: patent US11787785B2 (NOVARTIS AG, priority 2021, dated 2023)

Target: T1, WIZ protein (HiBit-WIZ fusion protein) (Homo sapiens, UniProt O95785+Q96SW2)
T1 construct: expressed in transfected cells
Experiment: Quantification of WIZ protein levels in HiBit tag fusion protein assay (WIZ HiBit assay in 293T cells)
Format: cell-based
Settings: for Dmax at 25 µM / remaining activity at 25 µM: HEK-293T, 293T cells; for Dmax at 25 µM: 100 − Amax, read-out: % degradation of WIZ (100 − Amax); for remaining activity at 25 µM: DMSO-normalized, curve-fitted percentage of WIZ-HiBit remaining at 25 uM, read-out: WIZ Amax; for DC50: WIZ HiBit assay in 293T cells, 10-point, 5-fold dose response, highest concentration 25 μM, about 18 hours, read-out: WIZ AC50
Outline: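 Luminescence after LgBit complementation quantified remaining HiBit-WIZ in lysates of single-copy stable 293T lines. Cells dosed ~18 h at 37 °C with 10-point, 5-fold dilutions (highest 25 μM); DMSO set to 100%, fitted curve gave % remaining at 25 μM (Amax).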

T1 sequence (O95785 whole entry, the tested form may be a part): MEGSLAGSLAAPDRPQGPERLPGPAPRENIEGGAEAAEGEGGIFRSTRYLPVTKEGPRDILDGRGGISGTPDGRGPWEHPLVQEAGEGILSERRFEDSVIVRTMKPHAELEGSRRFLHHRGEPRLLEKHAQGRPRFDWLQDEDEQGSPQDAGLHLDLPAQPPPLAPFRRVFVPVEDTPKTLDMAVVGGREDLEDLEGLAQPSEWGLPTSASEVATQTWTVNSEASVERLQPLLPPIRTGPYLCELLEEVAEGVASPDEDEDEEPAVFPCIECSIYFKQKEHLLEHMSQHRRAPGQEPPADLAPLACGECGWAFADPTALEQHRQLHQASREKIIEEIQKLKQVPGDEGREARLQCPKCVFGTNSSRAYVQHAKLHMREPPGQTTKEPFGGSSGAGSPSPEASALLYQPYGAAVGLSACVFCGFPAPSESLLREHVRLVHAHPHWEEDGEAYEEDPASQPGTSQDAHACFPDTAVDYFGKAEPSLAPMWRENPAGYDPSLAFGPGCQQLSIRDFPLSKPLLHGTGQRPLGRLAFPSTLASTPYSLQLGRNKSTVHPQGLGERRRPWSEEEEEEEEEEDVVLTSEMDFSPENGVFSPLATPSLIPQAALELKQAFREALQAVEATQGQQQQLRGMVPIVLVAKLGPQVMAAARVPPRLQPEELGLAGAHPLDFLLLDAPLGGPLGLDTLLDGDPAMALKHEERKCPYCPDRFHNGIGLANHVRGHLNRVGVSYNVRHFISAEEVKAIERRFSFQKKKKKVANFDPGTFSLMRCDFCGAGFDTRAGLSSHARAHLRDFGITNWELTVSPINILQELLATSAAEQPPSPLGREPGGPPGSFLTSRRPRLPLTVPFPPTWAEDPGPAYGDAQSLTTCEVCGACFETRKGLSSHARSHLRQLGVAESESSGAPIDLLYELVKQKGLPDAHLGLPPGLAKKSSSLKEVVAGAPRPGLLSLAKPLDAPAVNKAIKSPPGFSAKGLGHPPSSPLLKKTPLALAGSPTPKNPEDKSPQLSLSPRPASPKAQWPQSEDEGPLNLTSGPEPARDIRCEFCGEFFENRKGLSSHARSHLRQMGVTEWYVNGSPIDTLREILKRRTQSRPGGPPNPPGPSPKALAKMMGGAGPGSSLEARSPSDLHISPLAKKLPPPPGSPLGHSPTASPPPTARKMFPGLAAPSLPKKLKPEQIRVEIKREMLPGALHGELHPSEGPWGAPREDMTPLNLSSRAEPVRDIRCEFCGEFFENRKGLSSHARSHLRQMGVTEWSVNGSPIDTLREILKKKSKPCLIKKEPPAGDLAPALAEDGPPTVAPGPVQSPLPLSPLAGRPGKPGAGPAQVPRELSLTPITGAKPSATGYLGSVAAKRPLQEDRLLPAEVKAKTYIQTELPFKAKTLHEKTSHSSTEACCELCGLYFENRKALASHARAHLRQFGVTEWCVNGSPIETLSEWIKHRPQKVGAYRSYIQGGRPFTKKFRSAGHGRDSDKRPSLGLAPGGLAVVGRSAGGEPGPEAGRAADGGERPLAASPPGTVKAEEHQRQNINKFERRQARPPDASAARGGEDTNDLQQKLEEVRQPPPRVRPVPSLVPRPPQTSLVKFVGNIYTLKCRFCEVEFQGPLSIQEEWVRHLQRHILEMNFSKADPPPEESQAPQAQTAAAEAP
T1 sequence (Q96SW2 whole entry, the tested form may be a part): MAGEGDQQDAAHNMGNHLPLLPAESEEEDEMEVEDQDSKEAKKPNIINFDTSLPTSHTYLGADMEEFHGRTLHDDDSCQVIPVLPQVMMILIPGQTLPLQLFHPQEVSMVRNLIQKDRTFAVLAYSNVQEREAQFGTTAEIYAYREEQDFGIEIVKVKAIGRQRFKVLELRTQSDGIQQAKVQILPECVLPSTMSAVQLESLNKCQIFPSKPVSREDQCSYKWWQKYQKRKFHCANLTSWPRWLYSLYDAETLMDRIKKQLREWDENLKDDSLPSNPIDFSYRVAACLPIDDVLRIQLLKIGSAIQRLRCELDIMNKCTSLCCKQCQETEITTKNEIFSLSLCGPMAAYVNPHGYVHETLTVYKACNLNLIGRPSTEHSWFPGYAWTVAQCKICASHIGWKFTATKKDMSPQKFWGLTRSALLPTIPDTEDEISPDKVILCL
T1 sequence (Q16531 whole entry partner, the tested form may be a part): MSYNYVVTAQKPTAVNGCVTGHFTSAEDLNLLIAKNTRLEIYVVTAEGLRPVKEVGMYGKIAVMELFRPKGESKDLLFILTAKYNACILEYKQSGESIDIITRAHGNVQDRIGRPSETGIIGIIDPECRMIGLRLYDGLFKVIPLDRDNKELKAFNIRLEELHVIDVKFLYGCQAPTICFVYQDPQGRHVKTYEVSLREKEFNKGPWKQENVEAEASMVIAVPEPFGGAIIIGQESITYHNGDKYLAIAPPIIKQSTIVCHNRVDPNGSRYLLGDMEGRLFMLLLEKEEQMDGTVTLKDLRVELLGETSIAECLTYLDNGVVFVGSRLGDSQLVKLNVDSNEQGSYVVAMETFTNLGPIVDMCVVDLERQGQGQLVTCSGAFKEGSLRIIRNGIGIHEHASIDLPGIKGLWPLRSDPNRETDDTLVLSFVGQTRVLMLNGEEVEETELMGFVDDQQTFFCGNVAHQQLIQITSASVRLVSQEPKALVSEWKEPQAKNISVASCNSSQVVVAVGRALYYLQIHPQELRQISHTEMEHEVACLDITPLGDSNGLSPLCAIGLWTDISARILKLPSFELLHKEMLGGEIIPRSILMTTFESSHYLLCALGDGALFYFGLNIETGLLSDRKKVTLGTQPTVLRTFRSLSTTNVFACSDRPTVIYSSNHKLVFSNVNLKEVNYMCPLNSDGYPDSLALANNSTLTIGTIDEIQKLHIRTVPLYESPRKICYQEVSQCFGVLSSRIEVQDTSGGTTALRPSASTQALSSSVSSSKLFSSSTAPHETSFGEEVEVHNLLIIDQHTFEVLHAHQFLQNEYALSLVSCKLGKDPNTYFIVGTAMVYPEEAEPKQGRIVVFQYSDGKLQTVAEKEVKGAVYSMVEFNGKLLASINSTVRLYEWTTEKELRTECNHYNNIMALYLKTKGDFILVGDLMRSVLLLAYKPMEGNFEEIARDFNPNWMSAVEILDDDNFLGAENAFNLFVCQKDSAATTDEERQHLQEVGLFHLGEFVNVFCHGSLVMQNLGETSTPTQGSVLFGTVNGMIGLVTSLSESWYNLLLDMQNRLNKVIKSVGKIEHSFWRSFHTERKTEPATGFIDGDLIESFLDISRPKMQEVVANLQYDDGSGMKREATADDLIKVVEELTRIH

| Compound | Dmax at 25 µM | remaining activity at 25 µM | DC50 |
| --- | --- | --- | --- |
| CC(C)CN1CCN(Cc2ccn3ncc(N4CCC(=O)NC4=O)c3c2)[C@H](C)C1 [Example 220] | 66% | 34% | 133 nM |
| CC(C)CN1[C@@H]2CC[C@H]1CC(Cc1ccn3ncc(N4CCC(=O)NC4=O)c3c1)C2 (stereo partly drawn) [Example 67, 1-(5-(((1R,5S)-8-isobutyl-8-azabicyclo[3.2.1]octan-3-yl)methyl)pyrazolo[1,5-a]pyridin-3-yl)dihydropyrimidine-2,4(1H,3H)-dione] | 61% | 39% | 561 nM |
| Cc1cn(-c2cnn3ccc(C[C@@H]4CCN(CC5CC5)[C@@H](C)C4)cc23)c(=O)[nH]c1=O [Example 348, 1-(5-(((2S,4R)-1-(cyclopropylmethyl)-2-methylpiperidin-4-yl)methyl)pyrazolo[1,5-a]pyridin-3-yl)-5-methylpyrimidine-2,4(1H,3H)-dione] | 86% | 14% | 400 nM |
| CO[C@H]1C[C@@H](CN2CCN(Cc3ccn4ncc(N5CCC(=O)NC5=O)c4c3)C[C@@H]2C)C1 [Example 317, 1-(5-(((S)-4-(((1s,3R)-3-methoxycyclobutyl)methyl)-3-methylpiperazin-1-yl)methyl)pyrazolo[1,5-a]pyridin-3-yl)dihydropyrimidine-2,4(1H,3H)-dione] | 80% | 20% | 31 nM |
| CC(C)CN1CCN(Cc2ccn3ncc(-n4cc(C5CC5)c(=O)[nH]c4=O)c3c2)C[C@@H]1C [Example 361, (S)-5-cyclopropyl-1-(5-((4-isobutyl-3-methylpiperazin-1-yl)methyl)pyrazolo[1,5-a]pyridin-3-yl)pyrimidine-2,4(1H,3H)-dione] | 0% | 100% | > 25000 nM |
| C[C@H]1CN(CC2CCCCC2)CCN1Cc1ccn2ncc(N3CCC(=O)NC3=O)c2c1 [Example 221] | 54% | 46% | 318 nM |
| O=C1CCN(c2cnn3ccc(CC4CCN(C(=O)c5ccccc5)CC4)cc23)C(=O)N1 [Example 101] | 33% | 67% | > 25000 nM |
| C[C@H]1C[C@H](Cc2ccn3ncc(-n4cc(Cl)c(=O)[nH]c4=O)c3c2)CCN1CC1CCC(F)(F)CC1 [Example 352, 5-chloro-1-(5-(((2S,4R)-1-((4,4-difluorocyclohexyl)methyl)-2-methylpiperidin-4-yl)methyl)pyrazolo[1,5-a]pyridin-3-yl)pyrimidine-2,4(1H,3H)-dione] | 90% | 10% | 192 nM |
| C[C@H]1C[C@H](Cc2ccn3ncc(N4CCC(=O)NC4=O)c3c2)CCN1S(=O)(=O)N(C)C [Example 292] | 83% | 17% | 11 nM |
| C[C@H]1CN(Cc2ccn3ncc(N4CCC(=O)NC4=O)c3c2)CCN1Cc1cccnc1 [Example 208] | 60% | 40% | 580 nM |
| O=C1CCN(c2cnn3ccc(CN4CCN(CCC5CCCCC5)C(=O)C4)cc23)C(=O)N1 [Example 243, 1-(5-((4-(2-cyclohexylethyl)-3-oxopiperazin-1-yl)methyl)pyrazolo[1,5-a]pyridin-3-yl)dihydropyrimidine-2,4(1H,3H)-dione] | 13% | 87% | 3060 nM |
| O=C1CCN(c2cnn3ccc(CN4CCN(CCc5ccccc5)CC4)cc23)C(=O)N1 [Example 178] | 76% | 24% | 48 nM |
| CC(C)CN1CC[C@@H](Cc2ccn3ncc(-n4cc(C5CC5)c(=O)[nH]c4=O)c3c2)C[C@@H]1C [Example 354, 5-cyclopropyl-1-(5-(((2S,4R)-1-isobutyl-2-methylpiperidin-4-yl)methyl)pyrazolo[1,5-a]pyridin-3-yl)pyrimidine-2,4(1H,3H)-dione] | 0% | 100% | > 25000 nM |
